From ChEMBL document CHEMBL4507258 (2021)

Key:
[1] = biological target: Mitogen-activated protein kinase 14 (Homo sapiens) (UniProt Q16539); details: Compound concentration 1000.0 nM
[2] = biological target: Mitogen-activated protein kinase kinase kinase kinase 5 (Homo sapiens) (UniProt Q9Y4K4); details: Compound concentration 1000.0 nM
[3] = biological target: Cytoplasmic tyrosine-protein kinase BMX (Homo sapiens) (UniProt P51813); details: Compound concentration 1000.0 nM
[4] = biological target: Dual specificity tyrosine-phosphorylation-regulated kinase 1A (Homo sapiens) (UniProt Q13627); details: Compound concentration 1000.0 nM
[5] = biological target: Delta-type opioid receptor (Homo sapiens) (UniProt P41143); details: Compound concentration 10.0 uM
[6] = biological target: 3-phosphoinositide-dependent protein kinase 1 (Homo sapiens) (UniProt O15530); details: Compound concentration 1000.0 nM
[7] = biological target: cAMP-dependent protein kinase catalytic subunit PRKX (Homo sapiens) (UniProt P51817); details: Compound concentration 1000.0 nM
[8] = tested on: Mast/stem cell growth factor receptor Kit (Homo sapiens), P10721 [D816H]; details: Compound concentration 1000.0 nM
[9] = biological target: Dual specificity protein kinase CLK4 (Homo sapiens) (UniProt Q9HAZ1); details: Compound concentration 1000.0 nM
[10] = biological target: Rho-associated protein kinase 2 (Homo sapiens) (UniProt O75116); details: Compound concentration 1000.0 nM
[11] = biological target: cGMP-dependent protein kinase 1 (Homo sapiens) (UniProt Q13976); details: Compound concentration 1000.0 nM
[12] = biological target: Cyclin-dependent kinase 8 (Homo sapiens) (UniProt P49336); details: Compound concentration 1000.0 nM
[13] = tested on: Epidermal growth factor receptor (Homo sapiens), P00533 [UNDEFINED MUTATION]; details: Compound concentration 1000.0 nM
[14] = tested on: Hepatocyte growth factor receptor (Homo sapiens), P08581 [Y1235D]; details: Compound concentration 1000.0 nM
[15] = biological target: Dual specificity mitogen-activated protein kinase kinase 3 (Homo sapiens) (UniProt P46734); details: Compound concentration 1000.0 nM
[16] = biological target: Interleukin-1 receptor-associated kinase 1 (Homo sapiens) (UniProt P51617); details: Compound concentration 1000.0 nM
[17] = biological target: Vascular endothelial growth factor receptor 3 (Homo sapiens) (UniProt P35916); details: Compound concentration 1000.0 nM
[18] = tested on: Mast/stem cell growth factor receptor Kit (Homo sapiens), P10721 [V559D,T670I]; details: Compound concentration 1000.0 nM
[19] = biological target: Phosphatidylinositol 4,5-bisphosphate 3-kinase catalytic subunit gamma isoform (Homo sapiens) (UniProt P48736); details: Compound concentration 1000.0 nM
[20] = tested on: Epidermal growth factor receptor (Homo sapiens), P00533 [G719S]; details: Compound concentration 1000.0 nM
[21] = biological target: Receptor-type tyrosine-protein kinase FLT3 (Homo sapiens) (UniProt P36888); details: Compound concentration 1000.0 nM
[22] = tested on: Epidermal growth factor receptor (Homo sapiens), P00533 [UNDEFINED MUTATION]; details: Compound concentration 1000.0 nM; remark: listed apart in the source
[23] = biological target: cAMP-dependent protein kinase catalytic subunit beta (Homo sapiens) (UniProt P22694); details: Compound concentration 1000.0 nM
[24] = biological target: Serine/threonine-protein kinase 16 (Homo sapiens) (UniProt O75716); details: Compound concentration 1000.0 nM
[25] = biological target: Serine/threonine-protein kinase DCLK2 (Homo sapiens) (UniProt Q8N568); details: Compound concentration 1000.0 nM
[26] = biological target: Mitogen-activated protein kinase kinase kinase 7 (Homo sapiens) (UniProt O43318); details: Compound concentration 1000.0 nM
[27] = biological target: Tyrosine-protein kinase Srms (Homo sapiens) (UniProt Q9H3Y6); details: Compound concentration 1000.0 nM
[28] = biological target: G protein-coupled receptor kinase 3 (Homo sapiens) (UniProt P35626); details: Compound concentration 1000.0 nM
[29] = biological target: D(3) dopamine receptor (Homo sapiens) (UniProt P35462); details: Compound concentration 10.0 uM
[30] = biological target: Calcium/calmodulin-dependent protein kinase type 1 (Homo sapiens) (UniProt Q14012); details: Compound concentration 1000.0 nM
[31] = biological target: Homeodomain-interacting protein kinase 1 (Homo sapiens) (UniProt Q86Z02); details: Compound concentration 1000.0 nM
[32] = biological target: Serine/threonine-protein kinase SIK3 (Homo sapiens) (UniProt Q9Y2K2); details: Compound concentration 1000.0 nM
[33] = biological target: Dual specificity mitogen-activated protein kinase kinase 7 (Homo sapiens) (UniProt O14733); details: Compound concentration 1000.0 nM
[34] = biological target: Serine/threonine-protein kinase Nek5 (Homo sapiens) (UniProt Q6P3R8); details: Compound concentration 1000.0 nM
[35] = biological target: Rho-associated protein kinase 1 (Homo sapiens) (UniProt Q13464); details: Compound concentration 1000.0 nM
[36] = biological target: Alpha-1B adrenergic receptor (Homo sapiens) (UniProt P35368); details: Compound concentration 10.0 uM
[37] = biological target: Serine/threonine-protein kinase B-raf (Homo sapiens) (UniProt P15056); details: Compound concentration 1000.0 nM
[38] = biological target: Mitogen-activated protein kinase kinase kinase 13 (Homo sapiens) (UniProt O43283); details: Compound concentration 1000.0 nM
[39] = biological target: Insulin-like growth factor 1 receptor (Homo sapiens) (UniProt P08069); details: Compound concentration 1000.0 nM
[40] = biological target: Tyrosine-protein kinase Mer (Homo sapiens) (UniProt Q12866); details: Compound concentration 1000.0 nM
[41] = biological target: BDNF/NT-3 growth factors receptor (Homo sapiens) (UniProt Q16620); details: Compound concentration 1000.0 nM
[42] = biological target: RAC-beta serine/threonine-protein kinase (Homo sapiens) (UniProt P31751); details: Compound concentration 1000.0 nM
[43] = biological target: Serine/threonine-protein kinase SIK2 (Homo sapiens) (UniProt Q9H0K1); details: Compound concentration 1000.0 nM
Chain of Serine/threonine-protein kinase SIK2 (Homo sapiens) (Q9H0K1 whole entry, looked up): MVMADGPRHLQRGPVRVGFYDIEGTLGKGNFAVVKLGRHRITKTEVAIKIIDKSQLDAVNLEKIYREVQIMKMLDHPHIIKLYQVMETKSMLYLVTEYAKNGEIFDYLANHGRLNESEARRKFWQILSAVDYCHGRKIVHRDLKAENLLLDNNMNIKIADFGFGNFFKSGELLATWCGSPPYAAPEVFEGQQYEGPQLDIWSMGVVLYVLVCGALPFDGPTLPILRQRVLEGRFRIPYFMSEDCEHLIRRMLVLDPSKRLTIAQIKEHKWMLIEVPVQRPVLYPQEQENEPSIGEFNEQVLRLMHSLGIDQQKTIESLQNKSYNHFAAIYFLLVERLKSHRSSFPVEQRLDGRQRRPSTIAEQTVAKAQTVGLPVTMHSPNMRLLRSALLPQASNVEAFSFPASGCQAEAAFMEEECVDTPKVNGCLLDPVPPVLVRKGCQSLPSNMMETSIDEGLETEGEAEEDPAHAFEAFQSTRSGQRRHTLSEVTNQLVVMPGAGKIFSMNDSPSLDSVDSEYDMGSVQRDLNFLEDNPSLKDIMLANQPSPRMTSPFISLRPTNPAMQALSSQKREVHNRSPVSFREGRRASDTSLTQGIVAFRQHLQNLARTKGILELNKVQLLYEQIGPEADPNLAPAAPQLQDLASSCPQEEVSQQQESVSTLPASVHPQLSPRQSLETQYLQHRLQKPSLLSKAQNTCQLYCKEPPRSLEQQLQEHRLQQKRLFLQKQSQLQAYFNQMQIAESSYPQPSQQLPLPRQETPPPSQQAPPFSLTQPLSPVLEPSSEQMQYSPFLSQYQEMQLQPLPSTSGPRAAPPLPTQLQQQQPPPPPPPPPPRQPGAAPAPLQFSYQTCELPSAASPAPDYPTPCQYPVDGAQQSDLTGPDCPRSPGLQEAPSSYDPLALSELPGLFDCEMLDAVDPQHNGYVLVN

Chain of Vascular endothelial growth factor receptor 3 (Homo sapiens) (P35916 whole entry): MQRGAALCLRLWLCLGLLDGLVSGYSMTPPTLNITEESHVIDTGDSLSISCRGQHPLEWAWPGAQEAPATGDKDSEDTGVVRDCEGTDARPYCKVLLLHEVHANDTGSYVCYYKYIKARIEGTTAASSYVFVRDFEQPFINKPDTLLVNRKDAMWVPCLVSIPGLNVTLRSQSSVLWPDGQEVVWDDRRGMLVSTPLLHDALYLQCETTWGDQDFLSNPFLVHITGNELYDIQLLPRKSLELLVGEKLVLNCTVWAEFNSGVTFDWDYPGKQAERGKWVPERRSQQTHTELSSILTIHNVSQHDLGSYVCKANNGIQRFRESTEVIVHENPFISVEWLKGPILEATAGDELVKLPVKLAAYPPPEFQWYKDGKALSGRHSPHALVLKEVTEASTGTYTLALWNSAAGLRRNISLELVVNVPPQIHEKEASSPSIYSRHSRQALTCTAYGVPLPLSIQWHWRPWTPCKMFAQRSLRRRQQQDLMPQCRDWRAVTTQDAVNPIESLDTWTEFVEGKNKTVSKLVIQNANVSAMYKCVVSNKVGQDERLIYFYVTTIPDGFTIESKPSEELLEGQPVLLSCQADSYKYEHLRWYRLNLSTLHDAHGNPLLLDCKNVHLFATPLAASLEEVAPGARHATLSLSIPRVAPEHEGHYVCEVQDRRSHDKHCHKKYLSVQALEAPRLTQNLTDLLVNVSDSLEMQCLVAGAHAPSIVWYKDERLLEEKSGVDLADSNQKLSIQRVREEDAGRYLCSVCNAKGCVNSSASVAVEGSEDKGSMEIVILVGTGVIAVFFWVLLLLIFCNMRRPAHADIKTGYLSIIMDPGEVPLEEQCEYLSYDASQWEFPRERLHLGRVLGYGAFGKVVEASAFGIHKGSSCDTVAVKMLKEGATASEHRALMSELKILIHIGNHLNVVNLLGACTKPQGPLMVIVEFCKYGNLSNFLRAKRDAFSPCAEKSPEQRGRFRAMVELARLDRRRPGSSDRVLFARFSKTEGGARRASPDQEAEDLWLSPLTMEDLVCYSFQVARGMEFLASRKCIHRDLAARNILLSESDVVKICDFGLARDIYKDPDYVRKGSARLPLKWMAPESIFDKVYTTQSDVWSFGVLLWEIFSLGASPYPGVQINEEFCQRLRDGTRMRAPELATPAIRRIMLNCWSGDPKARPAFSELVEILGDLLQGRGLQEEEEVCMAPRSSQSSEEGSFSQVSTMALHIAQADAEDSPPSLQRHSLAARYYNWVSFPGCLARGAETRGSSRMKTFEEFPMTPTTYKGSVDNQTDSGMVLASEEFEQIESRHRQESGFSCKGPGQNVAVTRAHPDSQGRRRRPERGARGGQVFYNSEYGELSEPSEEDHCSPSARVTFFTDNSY
Chain of Alpha-1B adrenergic receptor (Homo sapiens) (P35368 whole entry): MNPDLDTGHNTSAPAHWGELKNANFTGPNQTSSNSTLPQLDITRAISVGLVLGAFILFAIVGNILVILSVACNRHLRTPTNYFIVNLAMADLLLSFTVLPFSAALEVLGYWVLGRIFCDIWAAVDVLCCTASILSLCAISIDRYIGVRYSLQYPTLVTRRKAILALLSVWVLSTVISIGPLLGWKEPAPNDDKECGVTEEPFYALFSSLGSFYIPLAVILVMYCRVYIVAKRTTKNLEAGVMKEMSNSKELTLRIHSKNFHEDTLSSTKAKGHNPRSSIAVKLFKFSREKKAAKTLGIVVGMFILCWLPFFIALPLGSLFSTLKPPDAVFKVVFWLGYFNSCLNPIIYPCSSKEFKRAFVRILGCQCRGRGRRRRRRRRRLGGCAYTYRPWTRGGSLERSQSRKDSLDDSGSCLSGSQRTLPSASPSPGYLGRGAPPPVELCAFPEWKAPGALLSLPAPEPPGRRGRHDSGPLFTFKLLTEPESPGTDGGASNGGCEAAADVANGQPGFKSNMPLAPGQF
Chain of cGMP-dependent protein kinase 1 (Homo sapiens) (Q13976 whole entry): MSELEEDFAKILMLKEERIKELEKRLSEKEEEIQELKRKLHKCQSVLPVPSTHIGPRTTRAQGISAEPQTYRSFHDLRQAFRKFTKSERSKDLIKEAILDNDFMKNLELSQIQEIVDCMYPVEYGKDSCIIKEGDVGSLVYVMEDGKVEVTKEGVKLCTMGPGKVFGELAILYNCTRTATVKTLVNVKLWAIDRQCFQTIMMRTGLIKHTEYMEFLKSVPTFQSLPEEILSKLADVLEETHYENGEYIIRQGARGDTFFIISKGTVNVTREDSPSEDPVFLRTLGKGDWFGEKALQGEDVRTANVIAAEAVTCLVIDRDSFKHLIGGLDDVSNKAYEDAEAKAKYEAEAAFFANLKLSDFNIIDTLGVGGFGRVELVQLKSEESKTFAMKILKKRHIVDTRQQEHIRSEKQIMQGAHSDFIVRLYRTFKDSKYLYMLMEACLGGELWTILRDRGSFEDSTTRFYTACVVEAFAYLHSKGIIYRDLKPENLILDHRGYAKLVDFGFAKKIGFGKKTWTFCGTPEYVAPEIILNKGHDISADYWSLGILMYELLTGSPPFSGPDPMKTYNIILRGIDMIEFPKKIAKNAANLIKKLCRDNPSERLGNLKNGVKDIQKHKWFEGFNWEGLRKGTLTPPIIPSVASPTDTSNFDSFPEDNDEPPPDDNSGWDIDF
Chain of Calcium/calmodulin-dependent protein kinase type 1 (Homo sapiens) (Q14012 whole entry, looked up): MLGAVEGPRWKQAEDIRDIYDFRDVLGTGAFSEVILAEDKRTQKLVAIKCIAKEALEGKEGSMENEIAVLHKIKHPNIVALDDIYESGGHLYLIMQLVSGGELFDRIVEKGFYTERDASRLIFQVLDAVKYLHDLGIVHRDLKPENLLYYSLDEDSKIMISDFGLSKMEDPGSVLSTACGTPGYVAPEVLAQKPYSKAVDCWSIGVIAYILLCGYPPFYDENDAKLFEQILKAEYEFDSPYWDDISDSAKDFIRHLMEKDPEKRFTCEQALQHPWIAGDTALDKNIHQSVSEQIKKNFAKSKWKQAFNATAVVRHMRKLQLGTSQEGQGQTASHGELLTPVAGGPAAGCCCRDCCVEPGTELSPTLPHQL
Chain of G protein-coupled receptor kinase 3 (Homo sapiens) (P35626 whole entry): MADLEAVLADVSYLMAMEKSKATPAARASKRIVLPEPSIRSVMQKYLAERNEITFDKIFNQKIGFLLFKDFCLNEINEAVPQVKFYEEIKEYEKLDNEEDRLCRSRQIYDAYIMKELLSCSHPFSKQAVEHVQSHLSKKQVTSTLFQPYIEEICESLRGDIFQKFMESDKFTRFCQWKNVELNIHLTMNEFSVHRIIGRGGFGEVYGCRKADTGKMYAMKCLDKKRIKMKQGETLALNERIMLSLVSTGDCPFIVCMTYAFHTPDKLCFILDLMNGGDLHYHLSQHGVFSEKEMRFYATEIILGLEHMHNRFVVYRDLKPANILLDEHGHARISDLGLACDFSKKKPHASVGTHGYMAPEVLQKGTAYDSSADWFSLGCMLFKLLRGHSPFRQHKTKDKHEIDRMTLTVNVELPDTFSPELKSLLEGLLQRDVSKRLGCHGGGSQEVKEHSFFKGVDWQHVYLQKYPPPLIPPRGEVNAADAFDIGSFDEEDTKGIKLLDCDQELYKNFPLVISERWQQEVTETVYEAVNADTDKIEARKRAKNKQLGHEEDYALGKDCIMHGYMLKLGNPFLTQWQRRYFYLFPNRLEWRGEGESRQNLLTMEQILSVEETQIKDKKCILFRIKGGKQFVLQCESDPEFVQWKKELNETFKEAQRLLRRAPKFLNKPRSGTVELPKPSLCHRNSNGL
Chain of Mitogen-activated protein kinase 14 (Homo sapiens) (Q16539 whole entry): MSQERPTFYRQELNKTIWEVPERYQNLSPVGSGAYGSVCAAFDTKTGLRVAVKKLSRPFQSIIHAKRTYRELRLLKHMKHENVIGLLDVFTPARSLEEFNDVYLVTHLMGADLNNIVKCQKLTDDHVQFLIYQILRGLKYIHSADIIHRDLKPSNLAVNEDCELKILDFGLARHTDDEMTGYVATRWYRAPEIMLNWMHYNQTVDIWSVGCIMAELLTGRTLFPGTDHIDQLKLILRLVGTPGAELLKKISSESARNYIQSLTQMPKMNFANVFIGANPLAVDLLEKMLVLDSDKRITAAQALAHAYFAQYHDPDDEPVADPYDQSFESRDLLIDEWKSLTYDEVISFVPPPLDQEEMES

CCCCN(CCCC)C(=O)CN1C[C@@H](c2cc(OC)c3c(c2)OCO3)[C@H](C(=O)O)[C@H]1CC(C)(C)CCC [A-545]
inactive: residual activity [1] 81.3% | residual activity [2] 100% | residual activity [3] 84.6% | residual activity [4] 96.3% | inhibition [5] 41.1% | residual activity [6] 77.3% | residual activity [7] 87.7% | residual activity [8] 78.5% | residual activity [9] 72.4% | residual activity [10] 100% | residual activity [11] 100% | residual activity [12] 78% | residual activity [13] 75.9% | residual activity [14] 100% | residual activity [15] 89.5% | residual activity [16] 76.6% | residual activity [17] 100% | residual activity [18] 79% | residual activity [19] 90.8% | residual activity [20] 100% | residual activity [21] 91.9% | residual activity [22] 100% | residual activity [23] 100% | residual activity [24] 100% | residual activity [25] 87.4% | residual activity [26] 84.7% | residual activity [27] 90.6% | residual activity [28] 87.6% | inhibition [29] 16.6% | residual activity [30] 100% | residual activity [31] 77.3% | residual activity [32] 74.8% | residual activity [33] 88.6% | residual activity [34] 87.9% | residual activity [35] 100% | inhibition [36] 6.5% | residual activity [37] 92.3% | residual activity [38] 100% | residual activity [39] 97% | residual activity [40] 100% | residual activity [41] 98.3% | residual activity [42] 100% | residual activity [43] 100%

CCCCN(CCCC)C(=O)CN1C[C@H](c2cc(OC)c3c(c2)OCO3)[C@@H](C(=O)O)[C@@H]1CC(C)(C)CCC [ABT-546]
inactive: residual activity [1] 100% | residual activity [2] 100% | residual activity [3] 100% | residual activity [4] 73.1% | inhibition [5] 25.6% | residual activity [6] 100% | residual activity [7] 100% | residual activity [8] 67.3% | residual activity [9] 100% | residual activity [10] 85.2% | residual activity [11] 100% | residual activity [12] 100% | residual activity [13] 79.8% | residual activity [14] 100% | residual activity [15] 57.5% | residual activity [16] 64.3% | residual activity [17] 100% | residual activity [18] 100% | residual activity [19] 76.9% | residual activity [20] 100% | residual activity [21] 100% | residual activity [22] 95.6% | residual activity [23] 100% | residual activity [24] 100% | residual activity [25] 100% | residual activity [26] 85.5% | residual activity [27] 69.6% | residual activity [28] 50.8% | inhibition [29] 17.3% | residual activity [30] 100% | residual activity [31] 100% | residual activity [32] 60.5% | residual activity [33] 90.8% | residual activity [34] 100% | residual activity [35] 90.4% | inhibition [36] -7.9% | residual activity [37] 90.4% | residual activity [38] 89.3% | residual activity [39] 100% | residual activity [40] 100% | residual activity [41] 62% | residual activity [42] 100% | residual activity [43] 100%
